From US10548897B2, “KSR antagonists” (Icahn School of Medicine at Mount Sinai, priority 2015, dated 2020)
Where a name gives a salt, the structure may show the parent alone. Read-outs that look alike come from different tables or passages of the source. Blank lines part the entries; values can stand above or below the compound they belong to.

Tests used:
[1] = biological target: KSR2 (purified hKSR2-rMEK1 complex) (Homo sapiens (Human), UniProt Q6VAB6); test: ATP-biotin probe labeling and inhibitor competition (KSR2 band); format: binding; conditions: for competition of ATPbiotin probe labeling in KSR2:MEK1 complexes (in words): screen / SAR statements; for KSR binding (assessed): panel of known kinase inhibitors
Description: Human KSR2 (residues 634-950) and rabbit MEK1 (residues 1 to 393) were codon optimized for insect cell expression by DNA 2.0. Inserts were expressed with TEV cleavable 6×-His tags from the pFastBac Dual expression vector. Bacmids were used to transfect adherent SF21 cells and viruses were subsequently titred to high levels through serial infections of SF21 cells. […] Briefly, following infections, cells were harvested, lysed, and affinity purified using Co2+ sepharose resin (GoldBio). […] Dialysis retentate was diluted 3 fold and then applied to a Resourse S ion exchange column. […] One-to-one hKSR2-MEK1 complexes were captured in late fractions from an increasing salt gradient. Complexes were later applied to a 120 mL Superdex 200 gel filtration column and finally concentrated to approximately 10 mg/mL before flash freezing for biochemical assays.
The ATP-biotin assay was performed in buffer containing 25 mM Tris pH 7.5, 150 mM NaCl, 10 mM MgCl2, and 2% DMSO. […] In particular, hKSR2-rMEK1 was pre-incubated with 20 μM of the indicated compounds for 15 minutes. Then, ATP-biotin (Pierce Cat. #88310) was added to a final concentration of 2 μM. Reactions were incubated at room temperature for 5 minutes before being stopped by the addition of 6×SDS loading dye. […] Enhanced chemiluminescence signals corresponding to labeling on KSR2 and MEK1 were visualized and quantified using the Biodoc system (Biorad). Relative signals of Streptavidin HRP on bands corresponding to KSR2 and MEK1 in the presence of compounds relative to DMSO controls were used to determine ‘Percent Inhibition of ATP Probe Labeling’.
For the ATP^biotin labeling competition screen, samples were applied to a 4-20% Tris-HCl gel, separated, and then transferred to a nitrocellulose membrane. The membrane was blocked with 5% bovine serum albumin diluted in TBS-T for 30 minutes and subsequently probed with the Pierce™ High Sensitivity Streptavidin-HRP. After several washes, the membranes were visualized using enhanced chemiluminescence on a Biodoc (Biorad).

[2] = tested on: MAPK pathway readouts (pERK, pMEK, pRSK) in A375 and HCT-116; test: Western blot of MAPK pathway readouts, treatment with trametinib combinations; format: cell-based; conditions: for MAPK pathway inhibition (pERK, pMEK, pRSK) in combination with trametinib: combined with trametinib, A375 and HCT-116
[3] = biological target: MEK1 (purified hKSR2-rMEK1 complex) (Oryctolagus cuniculus (Rabbit), UniProt P29678); test: ATP-biotin probe labeling competition (MEK1 band); format: binding; conditions: competition with free ATP, purified KSR2:MEK1; read-out: free ATP IC50, ATPbiotin labeling of MEK1
Description: Human KSR2 (residues 634-950) and rabbit MEK1 (residues 1 to 393) were codon optimized for insect cell expression by DNA 2.0. Inserts were expressed with TEV cleavable 6×-His tags from the pFastBac Dual expression vector. Bacmids were used to transfect adherent SF21 cells and viruses were subsequently titred to high levels through serial infections of SF21 cells. […] Briefly, following infections, cells were harvested, lysed, and affinity purified using Co2+ sepharose resin (GoldBio). […] Dialysis retentate was diluted 3 fold and then applied to a Resourse S ion exchange column. This step removed excess MEK1, which binds weakly to the S column. One-to-one hKSR2-MEK1 complexes were captured in late fractions from an increasing salt gradient. Complexes were later applied to a 120 mL Superdex 200 gel filtration column and finally concentrated to approximately 10 mg/mL before flash freezing for biochemical assays.
The ATP-biotin assay was performed in buffer containing 25 mM Tris pH 7.5, 150 mM NaCl, 10 mM MgCl2, and 2% DMSO. Purified hKSR2-rMEK1 was assayed at 0.5 μM. In particular, hKSR2-rMEK1 was pre-incubated with 20 μM of the indicated compounds for 15 minutes. Then, ATP-biotin (Pierce Cat. #88310) was added to a final concentration of 2 μM. […] Enhanced chemiluminescence signals corresponding to labeling on KSR2 and MEK1 were visualized and quantified using the Biodoc system (Biorad). […]

[4] = tested on: KSR-stimulated MEK and ERK phosphorylation; test: Cell-based reconstitution system monitoring KSR-driven MAPK signaling; conditions: for suppression of KSR-stimulated MEK and ERK phosphorylation: KSR expression-dependent MAPK signaling
Description: To assess the biological function of lead compounds as Ras-MAPK pathway antagonists, a simplified cell-based reconstitution system was developed to directly monitor KSR-driven MAPK signaling. […] Based on similarity in phenotype and direct-binding activity, Compound 21 was identified as a small molecule mimic of KSR alleles that suppress oncogenic Ras mutations.

KSR2:B-RAF^F667E dimers = KSR2:B-RAF^F667E dimers (Homo sapiens, UniProt Q6VAB6); test: Biolayer inferometry of KSR2:B-RAF dimerization (Octet Red96); format: binding; conditions: compound at 25 μM
Procedure: B-RAF and B-RAF mutants (F667E+/−R509H) were immobilized on sensor-heads and KSR2:MEK1 or MEK1 assembly was monitored. Curves indicate dose ranges of KSR2:MEK1 or MEK1 from 625 nM to 10 μM. In all plots, association occurred from 0 to 660 seconds, and dissociation was monitored thereafter up to 1500 seconds. Compound 21 and trametinib were added in the presence of KSR2:MEK1 at a concentration of 25 μM each.
To directly investigate the impact of Compound 21 on KSR2:B-RAF dimerization, bio-layer inferometry (BLI) was utilized to monitor real-time association and dissociation of KSR2:MEK1 or free MEK1 to a sensor tethered with immobilized B-RAF.
To specifically monitor KSR2:B-RAF dimerization relative to other possible interactions, a mutation in B-RAF^F667E was identified that eliminates binding to free MEK but not KSR2-MEK1 complexes, as shown in FIGS. 7C-7D. […]
Interactions between purified B-RAF and the KSR2:MEK1 complex were measured using biolayer inferometry on the Octet Red96 system (Forte Bio). […] Association and dissociation was monitored over 660 and 840 seconds, respectively. Data sets were normalized and analysed using global fit binding models (Fortebio software). […]

[5] = ATPbiotin probe labeling competition, 0.1 μM KSR2:MEK1, 27 nM to 20 μM compound, triplicate, read-out: KSR2 IC50

Sequence of KSR2 (purified hKSR2-rMEK1 complex) (Q6VAB6 634-950): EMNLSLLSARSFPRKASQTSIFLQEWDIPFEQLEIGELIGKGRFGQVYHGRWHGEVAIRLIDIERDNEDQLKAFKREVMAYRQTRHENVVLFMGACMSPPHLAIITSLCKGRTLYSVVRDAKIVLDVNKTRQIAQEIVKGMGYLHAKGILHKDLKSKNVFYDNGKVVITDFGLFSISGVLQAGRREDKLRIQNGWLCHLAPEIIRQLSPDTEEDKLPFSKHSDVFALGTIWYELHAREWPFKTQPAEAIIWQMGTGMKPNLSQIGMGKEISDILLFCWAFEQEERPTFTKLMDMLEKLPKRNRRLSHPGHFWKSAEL
Sequence of KSR2 (purified hKSR2-rMEK1 complex) (P29678 whole entry partner, the tested form may be a part): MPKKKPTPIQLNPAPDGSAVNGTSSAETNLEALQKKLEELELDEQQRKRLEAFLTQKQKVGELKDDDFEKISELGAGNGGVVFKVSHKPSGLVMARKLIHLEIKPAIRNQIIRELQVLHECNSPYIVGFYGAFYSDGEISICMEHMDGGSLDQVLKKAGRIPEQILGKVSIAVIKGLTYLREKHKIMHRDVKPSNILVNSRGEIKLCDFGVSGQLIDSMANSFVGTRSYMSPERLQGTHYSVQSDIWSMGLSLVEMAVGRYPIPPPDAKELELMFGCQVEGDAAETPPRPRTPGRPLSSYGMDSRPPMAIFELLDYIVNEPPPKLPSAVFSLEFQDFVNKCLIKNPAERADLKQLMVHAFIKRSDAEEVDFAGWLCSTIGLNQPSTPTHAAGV
Sequence of MEK1 (purified hKSR2-rMEK1 complex) (P29678 whole entry, the tested form may be a part): as the sequence (P29678 whole entry partner, the tested form may be a part) above
Sequence of MEK1 (purified hKSR2-rMEK1 complex) (Q6VAB6 634-950 partner): as the sequence (Q6VAB6 634-950) above

Structure (SMILES): COc1cc2nccc(Nc3ccc(Oc4ccccc4)cc3)c2cc1OC.Cl [Compound 11, 6,7-Dimethoxy-N-(4-phenoxyphenyl)quinolin-4-amine hydrochloride]
competition of ATPbiotin probe labeling in KSR2:MEK1 complexes (in words) [1]: moderately tolerated

Structure (SMILES): Nc1ncnc2c1ncn2[C@@H]1O[C@H](COP(=O)(O)OP(=O)(O)OP(=O)(O)O)[C@@H](O)[C@H]1O [ATP, reference compound]
IC50 ([1]; competition with free ATP, purified KSR2:MEK1, read-out: free ATP IC50, ATPbiotin labeling of KSR2): 86 µM
IC50 [3]: 133 µM

Structure (SMILES): COc1cc2/c(=N/c3ccc(Oc4ccccc4)cc3)ncn(C)c2cc1OC [Compound 32, (Z)—N-(6,7-Dimethoxy-1-methylquinazolin-4(1H)-ylidene)-4-phenoxyaniline]
IC50 [1, 5]: > 10 µM
competition of ATPbiotin probe labeling in KSR2:MEK1 complexes (in words) [1]: greatly diminishes KSR2:MEK1 activity

Structure (SMILES): COc1ccc(Nc2ncnc3cc(OC)c(OC)cc23)cc1 [Compound 3, 6,7-Dimethoxy-N-(4-methoxyphenyl)quinazolin-4-amine hydrochloride]
IC50 [1, 5]: > 10 µM

Structure (SMILES): CCCS(=O)(=O)Nc1ccc(F)c(C(=O)c2c[nH]c3ncc(Cl)cc23)c1F [PLX4720]
MAPK pathway inhibition (pERK, pMEK, pRSK) in combination with trametinib [2]: did not display the same pathway inhibition

Structure (SMILES): CC(C)(C)c1nc(-c2cccc(NS(=O)(=O)c3c(F)cccc3F)c2F)c(-c2ccnc(N)n2)s1 [dabrafenib, reference compound]
suppression of KSR-stimulated MEK and ERK phosphorylation [4]: active
suppression of KSR-stimulated MAPK signaling with active site mutant KSR^A690F ([4]; KSR^A690F mutant): active

Structure (SMILES): COc1cc2ncnc(Nc3ccc(Oc4ccccc4)cc3)c2cc1OC.Cl [Compound 2, 6,7-Dimethoxy-N-(4-phenoxyphenyl)quinazolin-4-amine]
competition of ATPbiotin probe labeling in KSR2:MEK1 complexes (in words) [1]: competitor of probe labeling

Structure (SMILES): C#Cc1cccc(Nc2ncnc3cc(OCCOC)c(OCCOC)cc23)c1 [erlotinib, reference compound]
KSR binding (assessed) [1]: non-KSR binders
MAPK pathway inhibition (pERK, pMEK, pRSK) in combination with trametinib [2]: not observed

More lines, main results first:

KSR binding (assessed) [1]: non-KSR binders
Structure (SMILES): Cc1nc(Nc2ncc(C(=O)Nc3c(C)cccc3Cl)s2)cc(N2CCN(CCO)CC2)n1 [dasatinib, reference compound]
MAPK pathway inhibition (pERK, pMEK, pRSK) in combination with trametinib [2]: not observed

IC50 [1, 5]: > 10 µM
Structure (SMILES): COc1cc2ncnc(Nc3ccc(O)cc3)c2cc1OC [Compound 7, 4-((6,7-Dimethoxyquinazolin-4-yl)amino)phenol hydrochloride]

IC50 [1, 5]: > 10 µM
Structure (SMILES): COc1cc2ncnc(Nc3ccc(Oc4ccccc4)c(C)c3C)c2cc1OC.Cl [Compound 50, N-(2,3-Dimethyl-4-phenoxyphenyl)-6,7-dimethoxyquinazolin-4-amine hydrochloride]
suppression of KSR-stimulated MEK and ERK phosphorylation [4]: inactive

enhancement of KSR2:B-RAF dimerization (KSR2:B-RAF^F667E dimers): ~2 fold
Structure (SMILES): CC(=O)Nc1cccc(-n2c(=O)n(C3CC3)c(=O)c3c(Nc4ccc(I)cc4F)n(C)c(=O)c(C)c32)c1 [trametinib, reference compound]
MAPK pathway inhibition (pERK, pMEK, pRSK), single agent ([2]; alone, compared with Compound 21 + trametinib co-treatment): did not display the same pathway inhibition

KSR binding (assessed) [1]: non-KSR binders
Structure (SMILES): CS(=O)(=O)CCNCc1ccc(-c2ccc3ncnc(Nc4ccc(OCc5cccc(F)c5)c(Cl)c4)c3c2)o1 [lapatinib, reference compound]
MAPK pathway inhibition (pERK, pMEK, pRSK) in combination with trametinib [2]: not observed

KSR binding (assessed) [1]: non-KSR binders
Structure (SMILES): CCN(CC)CCNC(=O)c1c(C)[nH]c(/C=C2\C(=O)Nc3ccc(F)cc32)c1C [sutent, reference compound]
MAPK pathway inhibition (pERK, pMEK, pRSK) in combination with trametinib [2]: not observed
